The source of these data is patent US20090018134A1, “Compounds - 945” (AstraZeneca AB, priority 2007, published 2009).

Molecules are shown by their SMILES.

T1 sequence (P42345 1362-2549): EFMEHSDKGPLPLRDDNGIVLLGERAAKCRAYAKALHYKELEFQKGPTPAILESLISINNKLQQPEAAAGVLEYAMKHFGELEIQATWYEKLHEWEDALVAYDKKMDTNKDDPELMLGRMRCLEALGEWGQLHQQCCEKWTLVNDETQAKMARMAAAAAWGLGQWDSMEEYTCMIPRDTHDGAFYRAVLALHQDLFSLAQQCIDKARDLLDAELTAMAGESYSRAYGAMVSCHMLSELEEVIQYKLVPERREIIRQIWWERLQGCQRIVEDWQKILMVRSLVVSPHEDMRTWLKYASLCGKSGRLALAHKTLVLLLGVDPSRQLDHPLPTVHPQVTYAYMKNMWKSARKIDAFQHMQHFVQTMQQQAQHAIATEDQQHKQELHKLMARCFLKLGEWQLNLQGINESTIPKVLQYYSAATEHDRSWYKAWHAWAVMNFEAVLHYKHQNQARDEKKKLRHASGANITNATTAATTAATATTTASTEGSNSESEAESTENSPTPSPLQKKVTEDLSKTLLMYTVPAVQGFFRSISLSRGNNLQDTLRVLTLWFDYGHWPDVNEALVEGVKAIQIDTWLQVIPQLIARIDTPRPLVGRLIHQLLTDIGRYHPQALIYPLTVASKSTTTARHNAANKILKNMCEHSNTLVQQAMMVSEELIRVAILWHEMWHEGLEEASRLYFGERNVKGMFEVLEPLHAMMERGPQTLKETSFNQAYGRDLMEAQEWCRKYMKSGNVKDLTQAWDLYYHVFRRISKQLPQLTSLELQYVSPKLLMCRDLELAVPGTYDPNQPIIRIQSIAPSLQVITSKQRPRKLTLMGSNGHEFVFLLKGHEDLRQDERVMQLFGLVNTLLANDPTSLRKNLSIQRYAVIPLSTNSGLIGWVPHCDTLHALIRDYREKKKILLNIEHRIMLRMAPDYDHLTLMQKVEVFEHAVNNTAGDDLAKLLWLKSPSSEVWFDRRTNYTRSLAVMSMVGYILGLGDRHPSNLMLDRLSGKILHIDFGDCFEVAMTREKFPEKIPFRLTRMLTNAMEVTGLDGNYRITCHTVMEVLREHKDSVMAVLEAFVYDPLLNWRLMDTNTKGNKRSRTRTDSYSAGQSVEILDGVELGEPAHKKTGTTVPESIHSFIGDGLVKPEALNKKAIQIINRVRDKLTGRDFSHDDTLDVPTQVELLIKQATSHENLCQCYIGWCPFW

The experiment addresses T1, mTOR (Homo sapiens, UniProt P42345).
T1 construct: FLAG; made in house
Kind of experiment: In Vitro mTOR Kinase Assay (Echo), Test (a)(ii). It is filed as biochemical. Particulars: table of enzyme assay Test (a)(ii); read-out: Test (a)(ii) IC50. A digest of the protocol:
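Compounds were acoustically dispensed, then incubated with FLAG-tagged mTOR (1362-2549) for 2 hours at room temperature. Reactions were quenched with EDTA plus detection antibody and AlphaScreen beads and left overnight in the dark before reading. Loss of phospho-T389 signal gave IC50 values.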
On to `C[C@H]1COCCN1c1cc(C2(S(=O)(=O)c3cc(F)ccc3F)CC2)nc(-c2ccc(NC(=O)NCCF)cc2)n1` [Example 60c, 1-[4-[4-[1-(2,5-difluorophenyl)sulfonylcyclopropyl]-6-[(3S)-3-methylmorpholin-4-yl]pyrimidin-2-yl]phenyl]-3-(2-fluoroethyl)urea], for which the IC50 came to 6.95 nM.

For `C[C@H]1COCCN1c1cc(C2(S(=O)(=O)c3cc(F)ccc3F)CC2)nc(-c2ccc(NC(=O)NCC(F)F)cc2)n1` [Example 60d, 3-(2,2-difluoroethyl)-1-[4-[4-[1-(2,5-difluorophenyl)sulfonylcyclopropyl]-6-[(3S)-3-methylmorpholin-4-yl]pyrimidin-2-yl]phenyl]urea], the IC50 worked out at 18.3 nM.

Consider `CCNC(=O)Nc1ccc(-c2nc(N3CCOC[C@@H]3C)cc(C3(S(=O)(=O)c4cc(F)ccc4F)CC3)n2)cc1` [Example 60e, 3-[4-[4-[1-(2,5-difluorophenyl)sulfonylcyclopropyl]-6-[(3S)-3-methylmorpholin-4-yl]pyrimidin-2-yl]phenyl]-1-ethylurea], for which the IC50 stood at 11.6 nM.

On to `C[C@H]1COCCN1c1cc(C2(S(=O)(=O)c3cc(F)ccc3F)CC2)nc(-c2ccc(NC(=O)Nc3cnn(C)c3)cc2)n1` [Example 60f, 1-[4-[4-[1-(2,5-difluorophenyl)sulfonylcyclopropyl]-6-[(3S)-3-methylmorpholin-4-yl]pyrimidin-2-yl]phenyl]-3-(1-methylpyrazol-4-yl)urea], for which the concentration for half-maximal inhibition (IC50) was 17.3 nM.

With `CNC(=O)Nc1ccc(-c2nc(N3CCOC[C@@H]3C)cc(C3(S(=O)(=O)c4cc(F)ccc4C)CC3)n2)cc1` [Example 61, 1-[4-[4-[1-(5-Fluoro-2-methylphenyl)sulfonylcyclopropyl]-6-[(3S)-3-methylmorpholin-4-yl]pyrimidin-2-yl]phenyl]-3-methylurea], the IC50 came to 26.9 nM.

In the case of `Cc1ccc(F)cc1S(=O)(=O)C1(c2cc(N3CCOC[C@@H]3C)nc(-c3ccc(NC(=O)NC4CC4)cc3)n2)CC1` [Example 61a, 3-cyclopropyl-1-[4-[4-[1-(5-fluoro-2-methylphenyl)sulfonylcyclopropyl]-6-[(3S)-3-methylmorphohn-4-yl]pyrimidin-2-yl]phenyl]urea], the IC50 amounted to 32.6 nM.

Turning to `Cc1ccc(F)cc1S(=O)(=O)C1(c2cc(N3CCOC[C@@H]3C)nc(-c3ccc(NC(=O)NCCO)cc3)n2)CC1` [Example 61b, 1-[4-[4-[1-(5-fluoro-2-methylphenyl)sulfonylcyclopropyl]-6-[(3S)-3-methylmorpholin-4-yl]pyrimidin-2-yl]phenyl]-3-(2-hydroxyethyl)urea], the IC50 came to 13.6 nM.

In the case of `Cc1ccc(F)cc1S(=O)(=O)C1(c2cc(N3CCOC[C@@H]3C)nc(-c3ccc(NC(=O)NCCF)cc3)n2)CC1` [Example 61c, 3-(2-fluoroethyl)-1-[4-[4-[1-(5-fluoro-2-methylphenyl)sulfonylcyclopropyl]-6-[(3S)-3-methylmorpholin-4-yl]pyrimidin-2-yl]phenyl]urea], the IC50 was 21.1 nM.

For `Cc1ccc(F)cc1S(=O)(=O)C1(c2cc(N3CCOC[C@@H]3C)nc(-c3ccc(NC(=O)NCC(F)F)cc3)n2)CC1` [Example 61d, 3-(2,2-difluoroethyl)-1-[4-[4-[1-(5-fluoro-2-methylphenyl)sulfonylcyclopropyl]-6-[(3S)-3-methylmorphohn-4-yl]pyrimidin-2-yl]phenyl]urea], the half-maximal inhibitory concentration (IC50) came to 43.8 nM.

For the molecule `CCNC(=O)Nc1ccc(-c2nc(N3CCOC[C@@H]3C)cc(C3(S(=O)(=O)c4cc(F)ccc4C)CC3)n2)cc1` [Example 61e, 1-ethyl-3-[4-[4-[1-(5-fluoro-2-methylphenyl)sulfonylcyclopropyl]-6-[(3S)-3-methylmorpholin-4-yl]pyrimidin-2-yl]phenyl]urea], the IC50 was 23.7 nM.

As for `Cc1ccc(F)cc1S(=O)(=O)C1(c2cc(N3CCOC[C@@H]3C)nc(-c3ccc(NC(=O)Nc4cnn(C)c4)cc3)n2)CC1` [Example 61f, 1-[4-[4-[1-(5-fluoro-2-methylphenyl)sulfonylcyclopropyl]-6-[(3S)-3-methylmorpholin-4-yl]pyrimidin-2-yl]phenyl]-3-(1-methylpyrazol-4-yl)urea], the IC50 came to 32.8 nM.

Take `C[C@H]1COCCN1c1cc(C2(S(C)(=O)=O)CCC2)nc(-c2ccc(NC(=S)NCCO)cc2)n1` [Example 62, 3-(2-Hydroxyethyl)-1-[4-[4-[(3S)-3-methylmorpholin-4-yl]-6-(1-methylsulfonylcyclobutyl)pyrimidin-2-yl]phenyl]thiourea]: the IC50 turned out to be 2.05 nM.

For the molecule `C[C@H]1COCCN1c1cc(C2(S(C)(=O)=O)CCC2)nc(-c2ccc(NC(=S)NCc3ncc[nH]3)cc2)n1` [Example 62a, 3-(1H-imidazol-2-ylmethyl)-1-[4-[4-[(3S)-3-methylmorpholin-4-yl]-6-(1-methylsulfonylcyclobutyl)pyrimi-din-2-yl]phenyl]thiourea], the IC50 came to 39.3 nM.

In the case of `C[C@@H](CO)NC(=S)Nc1ccc(-c2nc(N3CCOC[C@@H]3C)cc(C3(S(C)(=O)=O)CCC3)n2)cc1` [Example 62b, 3-[(2S)-1-hydroxypropan-2-yl]-1-[4-[4-[(3S)-3-methylmorpholin-4-yl]-6-(1-methylsulfonylcyclobutyl)pyrimi-din-2-yl]phenyl]thiourea], the concentration for half-maximal inhibition (IC50) is 5.46 nM.

In the case of `C[C@H](CO)NC(=S)Nc1ccc(-c2nc(N3CCOC[C@@H]3C)cc(C3(S(C)(=O)=O)CCC3)n2)cc1` [Example 62c, 3-[(2R)-1-hydroxypropan-2-yl]-1-[4-[4-[(3S)-3-methylmorpholin-4-yl]-6-(1-methylsulfonylcyclobutyl)pyrimi-din-2-yl]phenyl]thiourea], the IC50 amounted to 37.5 nM.

As for `C[C@H]1COCCN1c1cc(C2(S(C)(=O)=O)CCC2)nc(-c2ccc(NC(=S)NCCCO)cc2)n1` [Example 62d, 3-(3-hydroxypropyl)-1-[4-[4-[(3S)-3-methylmorpholin-4-yl]-6-(1-methylsulfonylcyclobutyl)pyrimi-din-2-yl]phenyl]thiourea], the IC50 worked out at 22 nM.

Turning to `C[C@H]1COCCN1c1cc(C2(S(=O)(=O)c3ccncc3)CCC2)nc(-c2ccc(NC(=S)NCc3ncc[nH]3)cc2)n1` [Example 63, 3-(1H-Imidazol-2-ylmethyl)-1-[4-[4-[(3S)-3-methylmorpholin-4-yl]-6-(1-pyridin-4-ylsulfonylcyclobutyl)pyrimidin-2-yl]phenyl]thiourea], the IC50 was 72.5 nM.

Take `C[C@H]1COCCN1c1cc(C2(S(=O)(=O)c3ccc(OC(F)F)cc3)CC2)nc(-c2ccc(NC(=O)NC3CC3)cc2)n1` [Example 64, 3-Cyclopropyl-1-[4-[4-[1-[4-(difluoromethoxy)phenyl]sulfonylcyclopropyl]-6-[(3 S)-3-methylmorpholin-4-yl]pyrimidin-2-yl]phenyl]urea]: the half-inhibitory concentration (IC50) came to 7.85 nM.

For the molecule `CNC(=O)Nc1ccc(-c2nc(N3CCOC[C@@H]3C)cc(C3(S(=O)(=O)c4ccc(OC(F)F)cc4)CC3)n2)cc1` [Example 64a, 1-[4-[4-[1-[4-(difluoromethoxy)phenyl]sulfonyl-cyclopropyl]-6-[(3S)-3-methylmorpholin-4-yl]pyrimidin-2-yl]phenyl]-3-methylurea], the IC50 was 5.2 nM.

Turning to `C[C@H]1COCCN1c1cc(C2(S(C)(=O)=O)CC2)nc(-c2ccc(NC(=O)NCCF)cc2)n1` [Example 64aa, 3-(2-fluoroethyl)-1-[4-[4-[(3S)-3-methylmorpholin-4-yl]-6-(1-methylsulfonylcyclopropyl)pyrimi-din-2-yl]phenyl]urea], the half-inhibitory concentration (IC50) stood at 3.88 nM.

As to `C[C@H]1COCCN1c1cc(C2(S(C)(=O)=O)CC2)nc(-c2ccc(NC(=O)NCC(F)F)cc2)n1` [Example 64ab, 3-(2,2-difluoroethyl)-1-[4-[4-[(3S)-methylsulfonylcyclopropyl)pyrimi-din-2-yl]phenyl]urea], the half-inhibitory concentration (IC50) worked out at 9.4 nM.

`Cc1csc(S(=O)(=O)C2(c3cc(N4CCOC[C@@H]4C)nc(-c4ccc(NC(=O)N[C@@H](C)CO)cc4)n3)CC2)n1` [Example 64ac, 3-[(2S)-1-hydroxypropan-2-yl]-1-[4-[4-[(3S)-3-methylmorpholin-4-yl]-6-[1-[(4-methyl-1,3-thiazol-2-yl)sulfonyl]cyclopropyl]pyrimidin-2-yl]phenyl]urea]: the IC50 worked out at 5.29 nM.

With `Cc1csc(S(=O)(=O)C2(c3cc(N4CCOC[C@@H]4C)nc(-c4ccc(NC(=O)NCCF)cc4)n3)CC2)n1` [Example 64ae, 3-(2-fluoroethyl)-1-[4-[4-[(3S)-3-methylmorpholin-4-yl]-6-[1-[(4-methyl-1,3-thiazol-2-yl)sulfonyl]cyclopropyl]pyrimidin-2-yl]phenyl]urea], the IC50 came to 2.13 nM.

In the case of `C[C@H]1COCCN1c1cc(C2(S(=O)(=O)c3ccccn3)CC2)nc(-c2ccc(NC(=O)NCC(F)F)cc2)n1` [Example 64af, 3-(2,2-difluoroethyl)-1-[4-[4-[(3S)-3-methylmorpholin-4-yl]-6-(1-pyridin-2-ylsulfonylcyclopropyl)pyrimidin-2-yl]phenyl]urea], the IC50 came to 3.39 nM.

Take `C[C@H]1COCCN1c1cc(C2(S(=O)(=O)c3ccccn3)CC2)nc(-c2ccc(NC(=O)Nc3ccon3)cc2)n1` [Example 64ag, 1-[4-[4-[(3S)-3-methylmorpholin-4-yl]-6-(1-pyridin-2-ylsulfonylcyclopropyl)pyrimidin-2-yl]phenyl]-3-(1,2-oxazol-3-yl)urea]: the IC50 amounted to 2.81 nM.

Turning to `C[C@H]1COCCN1c1cc(C2(S(=O)(=O)c3ccc(Cl)cc3)CC2)nc(-c2ccc(NC(=O)NCC(F)F)cc2)n1` [Example 64ah, 1-[4-[4-[1-(4-chlorophenyl)sulfonylcyclopropyl]-6-[(3S)-3-methylmorpholin-4-yl]pyrimidin-2-yl]phenyl]-3-(2,2-difluoroethyl)urea], the half-inhibitory concentration (IC50) came to 6.84 nM.

Turning to `C[C@H]1COCCN1c1cc(C2(S(=O)(=O)c3ccc(Cl)cc3)CC2)nc(-c2ccc(NC(=O)Nc3ccon3)cc2)n1` [Example 64ai, 1-[4-[4-[1-(4-chlorophenyl)sulfonylcyclopropyl]-6-[(3S)-3-methylmorpholin-4-yl]pyrimidin-2-yl]phenyl]-3-(1,2-oxazol-3-yl)urea], the IC50 is 5.67 nM.
